Measured values reported in the CheMixHub viscosity set.
± gives the uncertainty stated by the source.

Test: xn = mol fraction of the nth substance listed

COC(C)(C)C + CCCCCO
Conditions | viscosity [mPa·s]
298.15 K, 101.33 kPa, x1 = 0.0301 | 3.179 ± 0.19
298.15 K, 101.33 kPa, x1 = 0.0484 | 3.008 ± 0.18
298.15 K, 101.33 kPa, x1 = 0.1133 | 2.461 ± 0.15
298.15 K, 101.33 kPa, x1 = 0.1663 | 2.091 ± 0.13
298.15 K, 101.33 kPa, x1 = 0.2824 | 1.56 ± 0.096
298.15 K, 101.33 kPa, x1 = 0.3286 | 1.346 ± 0.084
298.15 K, 101.33 kPa, x1 = 0.3767 | 1.174 ± 0.074
298.15 K, 101.33 kPa, x1 = 0.4229 | 1.052 ± 0.067
298.15 K, 101.33 kPa, x1 = 0.4688 | 0.939 ± 0.061
298.15 K, 101.33 kPa, x1 = 0.5137 | 0.843 ± 0.055
298.15 K, 101.33 kPa, x1 = 0.5239 | 0.843 ± 0.055
298.15 K, 101.33 kPa, x1 = 0.5817 | 0.725 ± 0.049
298.15 K, 101.33 kPa, x1 = 0.6305 | 0.653 ± 0.045
298.15 K, 101.33 kPa, x1 = 0.6824 | 0.587 ± 0.041
298.15 K, 101.33 kPa, x1 = 0.7282 | 0.538 ± 0.038
298.15 K, 101.33 kPa, x1 = 0.7788 | 0.487 ± 0.035
298.15 K, 101.33 kPa, x1 = 0.8339 | 0.44 ± 0.033
298.15 K, 101.33 kPa, x1 = 0.8897 | 0.398 ± 0.03
298.15 K, 101.33 kPa, x2 = 0.0178 | 0.349 ± 0.028
303.15 K, 101 kPa, x1 = 0.0401 | 2.675 ± 0.11

Clc1cccc2ccccc12 + CCCCCO
viscosity [mPa·s], 101.33 kPa
Conditions | x1 = 0.1019 | x1 = 0.1914 | x1 = 0.3014 | x1 = 0.371 | x1 = 0.4944 | x1 = 0.6006 | x1 = 0.6961 | x1 = 0.7909 | x1 = 0.9013
298.15 K | 3.204 ± 0.041 | 3.078 ± 0.048 | 2.928 ± 0.057 | 2.833 ± 0.063 | 2.708 ± 0.075 | 2.669 ± 0.087 | 2.659 ± 0.098 | 2.702 ± 0.11 | 2.761 ± 0.13
303.15 K | 2.83 ± 0.037 | 2.704 ± 0.042 | 2.555 ± 0.05 | 2.473 ± 0.056 | 2.388 ± 0.066 | 2.364 ± 0.077 | 2.358 ± 0.087 | 2.393 ± 0.099 | 2.464 ± 0.11
308.15 K | 2.469 ± 0.032 | 2.37 ± 0.037 | 2.232 ± 0.044 | 2.179 ± 0.049 | 2.115 ± 0.059 | 2.107 ± 0.069 | 2.107 ± 0.078 | 2.134 ± 0.088 | 2.217 ± 0.1

CCc1ccccc1 + CCCCO
298.15 K, 101.33 kPa
Conditions | viscosity [mPa·s]
x2 = 0.1608 | 0.666 ± 0.006
x2 = 0.2901 | 0.735 ± 0.006
x2 = 0.4235 | 0.849 ± 0.007
x2 = 0.5335 | 0.999 ± 0.008
x2 = 0.6392 | 1.183 ± 0.009
x2 = 0.7407 | 1.435 ± 0.011
x2 = 0.8339 | 1.756 ± 0.013
x2 = 0.9191 | 2.126 ± 0.016

COC(C)(C)C + CCCCO
viscosity [mPa·s], 101 kPa
Conditions | x1 = 0.1006 | x1 = 0.102 | x1 = 0.2 | x1 = 0.2998 | x1 = 0.3995 | x1 = 0.5111 | x1 = 0.6008 | x1 = 0.6996 | x1 = 0.7994 | x1 = 0.9005
298.15 K | – | 1.94 ± 0.024 | 1.48 ± 0.018 | 1.14 ± 0.014 | 0.902 ± 0.011 | 0.719 ± 0.009 | 0.613 ± 0.008 | 0.529 ± 0.007 | 0.46 ± 0.006 | 0.401 ± 0.005
303.15 K | 1.695 ± 0.069 | – | – | – | – | – | – | – | – | –

COCCOCCOCCOCCOC + CCCCO
viscosity [mPa·s], 101 kPa
Conditions | 298.15 K | 303.15 K | 308.15 K
x2 = 0.1013 | – | – | 2.525 ± 0.024
x2 = 0.7991 | 2.165 ± 0.021 | 1.945 ± 0.019 | –

Clc1cccc2ccccc12 + CCCCO
viscosity [mPa·s], 101.33 kPa
Conditions | x1 = 0.1002 | x1 = 0.1997 | x1 = 0.2969 | x1 = 0.4016 | x1 = 0.5004 | x1 = 0.599 | x1 = 0.6949 | x1 = 0.8006 | x1 = 0.8969
298.15 K | 2.486 ± 0.059 | 2.447 ± 0.063 | 2.383 ± 0.067 | 2.376 ± 0.074 | 2.379 ± 0.082 | 2.43 ± 0.093 | 2.491 ± 0.1 | 2.591 ± 0.12 | 2.697 ± 0.14
303.15 K | 2.176 ± 0.052 | 2.149 ± 0.055 | 2.11 ± 0.06 | 2.102 ± 0.066 | 2.109 ± 0.073 | 2.153 ± 0.083 | 2.207 ± 0.093 | 2.301 ± 0.11 | 2.414 ± 0.12
308.15 K | 1.927 ± 0.047 | 1.894 ± 0.049 | 1.865 ± 0.053 | 1.854 ± 0.059 | 1.864 ± 0.065 | 1.914 ± 0.074 | 1.977 ± 0.083 | 2.059 ± 0.095 | 2.173 ± 0.11

Clc1ccccc1 + CCCCOC(C)=O
viscosity [mPa·s], 101 kPa
Conditions | 298.15 K | 308.15 K
x2 = 0.0484 | 0.744 ± 0.005 | 0.669 ± 0.005
x2 = 0.1504 | 0.723 ± 0.005 | 0.651 ± 0.005
x2 = 0.2515 | 0.706 ± 0.005 | 0.636 ± 0.005
x2 = 0.349 | 0.692 ± 0.005 | 0.624 ± 0.005
x2 = 0.4447 | 0.682 ± 0.005 | 0.614 ± 0.005
x2 = 0.4933 | 0.678 ± 0.005 | 0.61 ± 0.005
x2 = 0.5503 | 0.674 ± 0.005 | 0.605 ± 0.005
x2 = 0.6502 | 0.669 ± 0.005 | 0.599 ± 0.005
x2 = 0.7514 | 0.667 ± 0.005 | 0.595 ± 0.005
x2 = 0.8498 | 0.668 ± 0.005 | 0.593 ± 0.005
x2 = 0.9417 | 0.671 ± 0.005 | 0.593 ± 0.005

N#CCCCCC#N + CCCCOC(C)=O
303.15 K, 101.33 kPa
Conditions | viscosity [mPa·s]
x1 = 0.0984 | 0.7145 ± 0.0048
x1 = 0.3003 | 1.052 ± 0.0066
x1 = 0.3857 | 1.281 ± 0.0079
x1 = 0.4963 | 1.663 ± 0.0099
x1 = 0.5929 | 2.082 ± 0.012
x1 = 0.6974 | 2.631 ± 0.015
x1 = 0.8455 | 3.61 ± 0.02

CCc1ccccc1 + CCCO
viscosity [mPa·s], 101.33 kPa
Conditions | x2 = 0.3 | x2 = 0.5 | x2 = 0.7 | x2 = 0.9
303 K | 0.646 ± 0.006 | 0.826 ± 0.008 | 1.01 ± 0.009 | 1.335 ± 0.012
313 K | 0.561 ± 0.005 | 0.697 ± 0.007 | 0.839 ± 0.008 | 1.084 ± 0.01
323 K | 0.494 ± 0.005 | 0.598 ± 0.006 | 0.7 ± 0.007 | 0.886 ± 0.008

COC(C)(C)C + CCCO
Conditions | viscosity [mPa·s]
293.15 K, 101 kPa, x1 = 0.0599 | 1.835 ± 0.075
298.15 K, 101 kPa, x1 = 0.0403 | 1.735 ± 0.071
298.15 K, 101 kPa, x1 = 0.1495 | 1.275 ± 0.052
298.15 K, 101.33 kPa, x1 = 0.0111 | 1.902 ± 0.029
298.15 K, 101.33 kPa, x1 = 0.0293 | 1.804 ± 0.028
298.15 K, 101.33 kPa, x1 = 0.0591 | 1.651 ± 0.026
298.15 K, 101.33 kPa, x1 = 0.1133 | 1.416 ± 0.022
298.15 K, 101.33 kPa, x1 = 0.1374 | 1.327 ± 0.021
298.15 K, 101.33 kPa, x1 = 0.2501 | 0.998 ± 0.016
298.15 K, 101.33 kPa, x1 = 0.3008 | 0.889 ± 0.015
298.15 K, 101.33 kPa, x1 = 0.324 | 0.85 ± 0.014
298.15 K, 101.33 kPa, x1 = 0.3581 | 0.792 ± 0.013
298.15 K, 101.33 kPa, x1 = 0.3641 | 0.779 ± 0.013
298.15 K, 101.33 kPa, x1 = 0.4004 | 0.729 ± 0.012
298.15 K, 101.33 kPa, x1 = 0.4451 | 0.671 ± 0.012
298.15 K, 101.33 kPa, x1 = 0.488 | 0.624 ± 0.011
298.15 K, 101.33 kPa, x1 = 0.5535 | 0.562 ± 0.01
298.15 K, 101.33 kPa, x1 = 0.6157 | 0.512 ± 0.007
298.15 K, 101.33 kPa, x1 = 0.677 | 0.471 ± 0.007
298.15 K, 101.33 kPa, x1 = 0.7585 | 0.427 ± 0.007
298.15 K, 101.33 kPa, x1 = 0.8246 | 0.397 ± 0.006
298.15 K, 101.33 kPa, x1 = 0.8813 | 0.378 ± 0.006
298.15 K, 101.33 kPa, x1 = 0.9491 | 0.356 ± 0.006
298.15 K, 101.33 kPa, x2 = 0.014 | 0.344 ± 0.006

COCCOCCOCCOCCOC + CCCO
viscosity [mPa·s], 101 kPa
Conditions | 298.15 K | 308.15 K
x1 = 0.0071 | 1.913 ± 0.058 | 1.492 ± 0.046
x1 = 0.0125 | 1.9 ± 0.058 | 1.485 ± 0.046
x1 = 0.0309 | 1.872 ± 0.057 | 1.475 ± 0.046
x1 = 0.0504 | 1.852 ± 0.056 | 1.463 ± 0.045
x1 = 0.1024 | 1.841 ± 0.056 | 1.467 ± 0.046
x1 = 0.1342 | 1.861 ± 0.056 | 1.488 ± 0.046
x1 = 0.1847 | 1.908 ± 0.058 | 1.528 ± 0.047
x1 = 0.2444 | 1.989 ± 0.06 | 1.593 ± 0.049
x1 = 0.2916 | 2.062 ± 0.062 | 1.645 ± 0.051
x1 = 0.3271 | 2.126 ± 0.064 | 1.697 ± 0.052
x1 = 0.369 | 2.192 ± 0.066 | 1.754 ± 0.054
x1 = 0.4386 | 2.31 ± 0.069 | 1.84 ± 0.056
x1 = 0.4814 | 2.384 ± 0.071 | 1.896 ± 0.058
x1 = 0.5238 | 2.466 ± 0.074 | 1.953 ± 0.059
x1 = 0.5941 | 2.577 ± 0.077 | 2.041 ± 0.062
x1 = 0.6423 | 2.665 ± 0.079 | 2.104 ± 0.064
x1 = 0.7174 | 2.797 ± 0.083 | 2.205 ± 0.067
x1 = 0.7487 | 2.855 ± 0.085 | 2.247 ± 0.068
x1 = 0.7864 | 2.91 ± 0.086 | 2.291 ± 0.069
x1 = 0.8401 | 3.007 ± 0.089 | 2.36 ± 0.071

Clc1cccc2ccccc12 + CCCO
viscosity [mPa·s], 101.33 kPa
Conditions | x1 = 0.1004 | x1 = 0.2017 | x1 = 0.2983 | x1 = 0.395 | x1 = 0.5003 | x1 = 0.6002 | x1 = 0.6993 | x1 = 0.7991 | x1 = 0.9003
298.15 K | 1.968 ± 0.026 | 2.039 ± 0.032 | 2.091 ± 0.041 | 2.172 ± 0.051 | 2.255 ± 0.063 | 2.349 ± 0.076 | 2.448 ± 0.09 | 2.567 ± 0.11 | 2.716 ± 0.13
303.15 K | 1.745 ± 0.023 | 1.805 ± 0.029 | 1.854 ± 0.036 | 1.918 ± 0.045 | 1.999 ± 0.056 | 2.077 ± 0.067 | 2.166 ± 0.08 | 2.275 ± 0.095 | 2.417 ± 0.11
308.15 K | 1.57 ± 0.021 | 1.62 ± 0.026 | 1.672 ± 0.033 | 1.714 ± 0.04 | 1.789 ± 0.05 | 1.86 ± 0.06 | 1.943 ± 0.072 | 2.043 ± 0.085 | 2.178 ± 0.1
